Test results from patent publication US12370235B2, “Synthetic, non-natural antimicrobial peptides inspired by Staphylococcus auricularis delta toxin” (University of Saskatchewan, priority 2021, dated 2025).
Values after ≈ are worked out from the molar mass of the structure shown. Square brackets hold non-standard residues; d marks the D form. Ends that are not written are not given here. Peptide text beside a SMILES is read from it. Orn = NCCC[C@H](N)C(=O)O

How the values were obtained:
Kodamae ohmeri AR 396 = assay: MIC, YPD broth, CDC and FDA AR Candida isolate panel; type: cell-based; conditions: Table 9 below the line: only 200 or 100 μg/mL tested; values reported as 100 are ≤100 μg/mL
Description: (§1) MIC determination. MICs were measured using peptides with 95% purity. For bacterial studies, cation-adjusted Mueller Hinton (MH) broth was used as the growth medium whereas Yeast Peptone Dextrose (YPD; 10 g/L yeast extract, 20 g/L peptone, 20 g/L dextrose) was used for Candida spp. and other yeast. Microorganisms were diluted to an optical density of […] in MH or YPD broth and a 180 μl volume was mixed with 20 μl of peptide arrayed as a 2-fold dilution series in a flat-bottom 96-well microtitre plate. A control was performed using 20 μl of sterile water. Plates were incubated as standing cultures overnight at 37° C.

[1] = system: Candida duobushaemulonii AR 392; assay: as above; type: cell-based; conditions: Table 9 below the line: only 200 or 100 μg/mL tested; values reported as 100 are ≤100 μg/mL
Description: as §1

Candida krusei AR 397 = assay: as above; type: cell-based; conditions: Table 9 below the line: only 200 or 100 μg/mL tested; values reported as 100 are ≤100 μg/mL
Description: as §1

[2] = system: Candida duobushaemulonii AR 394; assay: as above; type: cell-based; conditions: Table 9 below the line: only 200 or 100 μg/mL tested; values reported as 100 are ≤100 μg/mL
Description: as §1

[3] = system: Saccharomyces cerevisiae AR 400; assay: as above; type: cell-based; conditions: Table 9 below the line: only 200 or 100 μg/mL tested; values reported as 100 are ≤100 μg/mL
Description: as §1

[4] = system: Candida duobushaemulonii AR 391; assay: as above; type: cell-based; conditions: Table 9 below the line: only 200 or 100 μg/mL tested; values reported as 100 are ≤100 μg/mL
Description: as §1

[5] = system: Saccharomyces cerevisiae AR 399; assay: as above; type: cell-based; conditions: Table 9 below the line: only 200 or 100 μg/mL tested; values reported as 100 are ≤100 μg/mL
Description: as §1

[6] = system: Candida haemulonii AR 393; assay: as above; type: cell-based; conditions: Table 9 below the line: only 200 or 100 μg/mL tested; values reported as 100 are ≤100 μg/mL
Description: as §1

[7] = system: Candida lusitaniae AR 398; assay: as above; type: cell-based; conditions: Table 9 below the line: only 200 or 100 μg/mL tested; values reported as 100 are ≤100 μg/mL
Description: as §1

[8] = system: Candida haemulonii AR 395; assay: as above; type: cell-based; conditions: Table 9 below the line: only 200 or 100 μg/mL tested; values reported as 100 are ≤100 μg/mL
Description: as §1

C. albicans MYA-2876 = assay: MIC, YPD broth; type: cell-based, Candida albicans; conditions: Table 8
Description: as §1
(§2) Determination of minimum inhibitory concentrations. The MICs were measured for bioactive peptides identified from the initial screen. For bacterial studies, cation-adjusted Mueller Hinton (MH) broth was used as the growth medium whereas YPD was used for C. albicans. Bacterial cultures were diluted to a OD value of 6×10^−4 in MH broth and a 180 μl volume was mixed with 20 μl of peptide arrayed as 2-fold dilution series in a 96-well plate. For the positive control, 20 μl of sterile water was used. Plates were incubated as standing cultures overnight at 37° C. The lowest peptide concentration that resulted no observed microbial growth after an overnight treatment was defined as the MIC.

S. aureus ATCC 29213 = assay: MIC, broth dilution; type: cell-based, Staphylococcus aureus; conditions: for MIC (μg/mL) S. aureus: liquid broth
Description: as §1, §2

[9] = system: S. aureus ATCC 33592 (MRSA SCCmec type III); assay: MIC, broth dilution; type: cell-based, Staphylococcus aureus; conditions: Table 5; STIP3 variants, highest concentration 100 μg/mL
Description: as §1, §2

[10] = system: S. aureus ATCC BAA-2313 (MRSA SCCmec type XI); assay: MIC, broth dilution; type: cell-based, Staphylococcus aureus; conditions: Table 5; STIP3 variants, highest concentration 100 μg/mL
Description: as §1, §2

[11] = system: S. aureus ATCC BAA-44 (MRSA SCCmec type I); assay: MIC, broth dilution; type: cell-based, Staphylococcus aureus; conditions: Table 5; STIP3 variants, highest concentration 100 μg/mL
Description: as §1, §2

[12] = system: S. aureus ATCC BAA-41 (MRSA SCCmec type II); assay: MIC, broth dilution; type: cell-based, Staphylococcus aureus; conditions: Table 5; STIP3 variants, highest concentration 100 μg/mL
Description: as §1, §2

[13] = system: S. aureus ATCC BAA-42 (MRSA SCCmec type VI); assay: MIC, broth dilution; type: cell-based, Staphylococcus aureus; conditions: Table 5; STIP3 variants, highest concentration 100 μg/mL
Description: as §1, §2

[14] = system: S. aureus ATCC BAA-2094 (MRSA SCCmec type V); assay: MIC, broth dilution; type: cell-based, Staphylococcus aureus; conditions: Table 5; STIP3 variants, highest concentration 100 μg/mL
Description: as §1, §2

[15] = system: S. aureus ATCC BAA-1683 (MRSA SCCmec type IV); assay: MIC, broth dilution; type: cell-based, Staphylococcus aureus; conditions: Table 5; STIP3 variants, highest concentration 100 μg/mL
Description: as §1, §2

[16] = system: Mannheimia haemolytica ATCC 33393; assay: MIC, broth dilution; type: cell-based
Description: as §1, §2
The ability of STIP3 variants to inhibit the growth of Mannheimia haemolytica ATCC 33393 was evaluated. This included an alanine scan of STIP3-1 (FIG. 8 & Table 10) as well as 30 rationally-designed STIPs that were evaluated in the preceding Examples against other pathogens (Table 11). Substitutions at a greater number of sites were tolerated in the context of antimicrobial activity. Moreover, the inclusion of basic natural and unnatural amino acids (e.g. lysine, ornithine, and arginine) at positions 3, 4 and 11 (i.e. X1, X2, and X4 of SEQ ID NO: 32) to afford a more uniformly cationic peptide increased activity against M. haemolytica.

M. luteus ATCC 4698 = assay: MIC, broth dilution; type: cell-based, Micrococcus luteus; conditions: Table 4; liquid broth
Description: as §1, §2

Compound | MIC (μg/mL) S. aureus (S. aureus ATCC 29213; Table 4) | MIC (μg/mL) S. aureus (S. aureus ATCC 29213; Table 10) | MIC (μg/mL) M. luteus (M. luteus ATCC 4698) [µg/mL] | MIC (μg/mL) M. haemolytica ([16]; Table 10, liquid broth) | other results
CC[C@H](C)[C@H](NC(=O)[C@H](Cc1c[nH]c2ccccc12)NC(=O)[C@H](CCCN)NC(=O)[C@@H](NC(=O)[C@H](CC(C)C)NC(=O)[C@H](C)NC(=O)[C@H](CCCN)NC(=O)[C@@H](NC(=O)[C@@H](N)[C@@H](C)O)C(C)C)C(C)C)C(=O)N[C@@H](CC(C)C)C(=O)N[C@@H](CCCN)C(=O)N[C@H](C(=O)N[C@H](C(=O)N[C@@H](C)C(=O)N[C@@H](CCCN)C(=O)N[C@@H](Cc1ccccc1)C(=O)N[C@@H](C)C(=O)O)C(C)C)[C@@H](C)O [STIP3-22, TVXALVXWILXTVAXFA] (H-TV[Orn]ALV[Orn]WIL[Orn]TVA[Orn]FA-OH; N-terminus and C-terminus assumed) |  |  |  |  | MIC (μg/mL) Kodamae ohmeri AR 396 (Kodamae ohmeri AR 396): > (values below the line were determined using two concentrations of peptide 200 or 100 μg/mL); MIC (μg/mL) Candida duobushaemulonii AR 392 [1]: > (values below the line were determined using two concentrations of peptide 200 or 100 μg/mL); MIC (μg/mL) Candida krusei AR 397 (Candida krusei AR 397): ≤ 100 µg/mL; MIC (μg/mL) Candida duobushaemulonii AR 394 [2]: > (values below the line were determined using two concentrations of peptide 200 or 100 μg/mL); MIC (μg/mL) Saccharomyces cerevisiae AR 400 [3]: ≤ 100 µg/mL; MIC (μg/mL) Candida duobushaemulonii AR 391 [4]: > (values below the line were determined using two concentrations of peptide 200 or 100 μg/mL); MIC (μg/mL) Saccharomyces cerevisiae AR 399 [5]: ≤ 100 µg/mL; MIC (μg/mL) Candida haemulonii AR 393 [6]: > (values below the line were determined using two concentrations of peptide 200 or 100 μg/mL); MIC (μg/mL) Candida lusitaniae AR 398 [7]: ≤ 100 µg/mL; MIC (μg/mL) Candida haemulonii AR 395 [8]: > (values below the line were determined using two concentrations of peptide 200 or 100 μg/mL); MIC C. albicans MYA-2876 (C. albicans MYA-2876): > (> symbol indicates that no inhibition was observed at the highest concentration of peptide tested: 100 μg/mL); MIC S. aureus ATCC 29213 (S. aureus ATCC 29213; Table 5, STIP3 variants, highest concentration 100 μg/mL): 25 µg/mL (≈ 13.4 µM); MIC S. aureus ATCC 33592 (III) [9]: 25 µg/mL (≈ 13.4 µM); MIC S. aureus ATCC BAA 2313 (XI) [10]: 100 µg/mL (≈ 53.8 µM); MIC S. aureus ATCC BAA 44 (I) [11]: 25 µg/mL (≈ 13.4 µM); MIC S. aureus ATCC BAA 41 (II) [12]: 25 µg/mL (≈ 13.4 µM); MIC S. aureus ATCC BAA 42 (VI) [13]: 25 µg/mL (≈ 13.4 µM); MIC S. aureus ATCC BAA 2094 (V) [14]: 25 µg/mL (≈ 13.4 µM); MIC S. aureus ATCC BAA 1683 (IV) [15]: 25 µg/mL (≈ 13.4 µM); MIC (μg/mL) M. haemolytica ([16]; Table 11, highest concentration 25 μg/mL): 6.25 µg/mL (≈ 3.36 µM)
TAGGLVKWILDTVKKFA [V2A, TAGGLVKWILDTVKKFA] | > (> = >200 μg/mL (maximum concentration tested)) | > (the use of > indicates an MIC > 200 μg/mL; the maximum concentration tested) | 50 | 100 µg/mL | 
TVGGAVKWILDTVKKFA [L5A, TVGGAVKWILDTVKKFA] | > (> = >200 μg/mL (maximum concentration tested)) | > (the use of > indicates an MIC > 200 μg/mL; the maximum concentration tested) | 100 | > (the use of > indicates an MIC > 200 μg/mL; the maximum concentration tested) | 
TVGGLAKWILDTVKKFA [V6A, TVGGLAKWILDTVKKFA] | > (> = >200 μg/mL (maximum concentration tested)) | > (the use of > indicates an MIC > 200 μg/mL; the maximum concentration tested) | 50 | 100 µg/mL | 
TVGGLVAWILDTVKKFA [K7A, TVGGLVAWILDTVKKFA] | > (> = >200 μg/mL (maximum concentration tested)) | > (the use of > indicates an MIC > 200 μg/mL; the maximum concentration tested) | 200 | > (the use of > indicates an MIC > 200 μg/mL; the maximum concentration tested) | 
TVGGLVKAILDTVKKFA [W8A, TVGGLVKAILDTVKKFA] | > (> = >200 μg/mL (maximum concentration tested)) | > (the use of > indicates an MIC > 200 μg/mL; the maximum concentration tested) | 100 | 200 µg/mL | 
TVGGLVKWALDTVKKFA [I9A, TVGGLVKWALDTVKKFA] | > (> = >200 μg/mL (maximum concentration tested)) | > (the use of > indicates an MIC > 200 μg/mL; the maximum concentration tested) | 200 | > (the use of > indicates an MIC > 200 μg/mL; the maximum concentration tested) | 
TVGGLVKWIADTVKKFA [L10A, TVGGLVKWIADTVKKFA] | > (> = >200 μg/mL (maximum concentration tested)) | > (the use of > indicates an MIC > 200 μg/mL; the maximum concentration tested) | 200 | 200 µg/mL | 
